# Laboratory results: patent US20260306640A1, “TECHNOLOGIES TARGETING CELL STATES” (Auron Therapeutics, Inc., priority 2023, published 2026)
# How the values were obtained:
# [1] = target: KAT2B (Homo sapiens, UniProt Q92831); assay: KAT2B degradation, Western Blot (Jess), NCI-H1048 cells; format: cell-based; design: degrader, Western blot (Jess); conditions: NCI-H1048 cells, KAT2B, 24 h, Western Blot, vs DMSO; read-out: KAT2B NCI-H1048 DC50
# In short: (§1)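 NCI-H1048 cells grown in HITES medium with 5% FBS were treated with compounds for 24 h at 37° C. Lysates were run by capillary Western (Jess) with KAT2A or KAT2B antibodies and chemiluminescent detection. DC50 derived from percent protein reduction versus DMSO control.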
# [2] = target: KAT2A (Homo sapiens, UniProt Q92830); assay: KAT2A degradation, Western Blot (Jess), NCI-H1048 cells; format: cell-based; design: degrader, Western blot (Jess); conditions: NCI-H1048 cells, KAT2A, 24 h, Western Blot, vs DMSO; read-out: KAT2A NCI-H1048 DC50
# In short: as §1
# Chain of KAT2B (Q92831 whole entry): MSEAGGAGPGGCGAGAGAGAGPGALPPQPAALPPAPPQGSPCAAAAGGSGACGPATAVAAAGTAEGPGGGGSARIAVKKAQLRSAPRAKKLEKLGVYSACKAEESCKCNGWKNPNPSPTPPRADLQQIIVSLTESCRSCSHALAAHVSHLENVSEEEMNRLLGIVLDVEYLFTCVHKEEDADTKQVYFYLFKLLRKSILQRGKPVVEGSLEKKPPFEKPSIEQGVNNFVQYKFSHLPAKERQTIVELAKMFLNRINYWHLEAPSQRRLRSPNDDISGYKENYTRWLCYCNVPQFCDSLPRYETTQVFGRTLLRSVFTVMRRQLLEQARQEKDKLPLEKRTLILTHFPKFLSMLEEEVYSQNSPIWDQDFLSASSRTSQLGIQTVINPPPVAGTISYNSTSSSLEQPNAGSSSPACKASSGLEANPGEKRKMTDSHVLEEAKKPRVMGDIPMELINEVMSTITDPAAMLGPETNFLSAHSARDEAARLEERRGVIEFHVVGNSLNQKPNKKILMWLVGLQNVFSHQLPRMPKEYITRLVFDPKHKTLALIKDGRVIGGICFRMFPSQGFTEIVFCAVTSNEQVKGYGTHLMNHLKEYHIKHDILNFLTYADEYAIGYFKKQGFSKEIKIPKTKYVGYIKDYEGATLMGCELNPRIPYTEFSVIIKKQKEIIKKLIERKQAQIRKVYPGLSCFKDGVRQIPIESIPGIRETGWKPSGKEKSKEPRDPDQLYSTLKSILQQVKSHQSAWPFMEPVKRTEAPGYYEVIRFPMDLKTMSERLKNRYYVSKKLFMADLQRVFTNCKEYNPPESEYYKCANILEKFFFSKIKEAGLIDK
# Chain of KAT2A (Q92830 whole entry): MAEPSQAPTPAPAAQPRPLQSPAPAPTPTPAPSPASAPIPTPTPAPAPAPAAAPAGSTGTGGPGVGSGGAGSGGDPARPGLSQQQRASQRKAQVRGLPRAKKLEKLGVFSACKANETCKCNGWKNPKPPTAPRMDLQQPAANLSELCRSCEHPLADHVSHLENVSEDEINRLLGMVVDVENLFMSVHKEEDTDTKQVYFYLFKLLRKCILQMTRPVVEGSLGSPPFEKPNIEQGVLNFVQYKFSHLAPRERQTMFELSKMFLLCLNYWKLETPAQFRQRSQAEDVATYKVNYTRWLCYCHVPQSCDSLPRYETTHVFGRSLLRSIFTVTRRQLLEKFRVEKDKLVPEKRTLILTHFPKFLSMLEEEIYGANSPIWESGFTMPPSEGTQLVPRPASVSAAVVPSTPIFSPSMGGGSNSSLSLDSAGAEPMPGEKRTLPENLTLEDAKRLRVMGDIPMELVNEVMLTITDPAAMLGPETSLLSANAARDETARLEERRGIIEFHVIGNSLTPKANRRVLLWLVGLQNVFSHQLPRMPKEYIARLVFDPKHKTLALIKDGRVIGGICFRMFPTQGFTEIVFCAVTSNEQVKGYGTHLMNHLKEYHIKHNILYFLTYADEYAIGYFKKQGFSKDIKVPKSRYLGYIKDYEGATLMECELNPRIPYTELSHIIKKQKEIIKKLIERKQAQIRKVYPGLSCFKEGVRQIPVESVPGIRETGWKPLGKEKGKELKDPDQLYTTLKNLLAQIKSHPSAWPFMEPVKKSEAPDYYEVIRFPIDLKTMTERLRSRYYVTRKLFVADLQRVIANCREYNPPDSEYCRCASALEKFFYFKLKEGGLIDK
DC50 [1] [nM],DC50 [2] [nM],Structure (SMILES)
< 1,< 1,CN1C[C@H](Nc2cnn(C)c(=O)c2Cl)C[C@H](c2ccc(C(=O)N3CCC4(CCC(c5ccc(C6CCC(=O)NC6=O)cn5)CC4)CC3)cc2)C1 (some centres unmarked) [Compound 322]
> 30,< 1,COc1cc(C2CCC(=O)NC2=O)ccc1N1CCC2(CCN(C(=O)c3ccc([C@H]4C[C@@H](Nc5cnn(C)c(=O)c5Cl)CN(C)C4)cc3)CC2)CC1 (some centres unmarked) [Compound 258]
1 to 30,< 1,CN1C[C@H](Nc2cnn(C)c(=O)c2Cl)C[C@H](c2ccc(C(=O)N3CCC4(CC3)CCN(c3ccc(C5CCC(=O)NC5=O)cc3C(F)(F)F)CC4)cc2)C1 (some centres unmarked) [Compound 227]
< 1,< 1,Cc1cc(N2CCC3(CCN(C(=O)c4ccc([C@H]5C[C@@H](Nc6cnn(C)c(=O)c6Br)CN(C)C5)cc4)CC3)CC2)cnc1C1CCC(=O)NC1=O (some centres unmarked) [Compound 246]
> 30,< 1,CN1C[C@H](Nc2cnn(C)c(=O)c2Cl)C[C@H](c2ccc(C(=O)N3CCC(C#Cc4ccc(C5CCC(=O)NC5=O)cc4)CC3)cc2)C1 (some centres unmarked) [Compound 332]
> 30,1 to 30,CN1C[C@H](Nc2cnn(C)c(=O)c2Br)C[C@H](c2ccc(C(=O)N3CCC4(CC3)CCN(c3ccc5nnn(C6CCC(=O)NC6=O)c5c3)CC4)cc2)C1 (some centres unmarked) [Compound 212]
< 1,< 1,CN1C[C@H](Nc2ccn(C)c(=O)c2Br)C[C@H](c2ccc(C(=O)N3CCC4(CCC(c5ccc(C6CCC(=O)NC6=O)cc5)CC4)CC3)cc2)C1 (some centres unmarked) [Compound 313]
> 30,> 30,"CN1C[C@H](Nc2cnn(C)c(=O)c2Br)C[C@H](c2ccc(CN3CCN(c4cccc(OC5CCC(=O)NC5=O)c4)CC3)cc2)C1 (stereo partly drawn) [Compound 435, 3-(3-(4-(4-((3R,5R)-5-((5-bromo-1-methyl-6-oxo-1,6-dihydropyridazin-4-yl)amino)-1-methylpiperidin-3-yl)benzyl)piperazin-1-yl)phenoxy)piperidine-2,6-dione]"
> 30,> 30,Cc1ncsc1-c1ccc(CNC(=O)[C@@H]2C[C@@H](O)CN2C(=O)[C@@H](NC(=O)CCCCNC(=O)c2ccc([C@H]3C[C@@H](Nc4cnn(C)c(=O)c4Br)CN(C)C3)cc2)C(C)(C)C)cc1 [Compound 422]
> 30,> 30,CN1C[C@H](Nc2cnn(C)c(=O)c2Br)C[C@H](c2ccc(C(=O)N3CCN(C4CCC(N5CCC(=O)NC5=O)CC4)CC3)cc2)C1 (some centres unmarked) [Compound 204]
> 30,1 to 30,CN1C[C@H](Nc2cnn(C)c(=O)c2Cl)C[C@H](c2ccc(CN3CCN(c4cccc(C5CCC(=O)NC5=O)c4)CC34CC4)cc2)C1 (some centres unmarked) [Compound 347]
1 to 30,< 1,CN1C[C@H](Nc2cnn(C)c(=O)c2Cl)C[C@H](c2ccc(CN3CCN(c4cccc(C5CCC(=O)NC5=O)c4)CC3)cc2)C1 (some centres unmarked) [Compound 361]
1 to 30,< 1,COc1cc(N2CCC3(CCN(C(=O)c4ccc([C@H]5C[C@@H](Nc6cnn(C)c(=O)c6Cl)CN(C)C5)cc4)CC3)CC2)cc(C)c1C1CCC(=O)NC1=O (some centres unmarked) [Compound 286]
1 to 30,< 1,Cc1cc(C2CCC(=O)NC2=O)ccc1N1CCC2(CCN(C(=O)c3ccc([C@H]4C[C@@H](Nc5cnn(C)c(=O)c5C)CN(C)C4)cc3)CC2)CC1 (some centres unmarked) [Compound 249]
< 1,< 1,"CN1C[C@H](Nc2cnn(C)c(=O)c2Br)C[C@H](c2ccc(N3CCC(Oc4cccc(C5CCC(=O)NC5=O)c4)CC3)cc2)C1 (stereo partly drawn) [Compound 434, 3-(3-((1-(4-((3R,5R)-5-((5-bromo-1-methyl-6-oxo-1,6-dihydropyridazin-4-yl)amino)-1-methylpiperidin-3-yl)phenyl)piperidin-4-yl)oxy)phenyl)piperidine-2,6-dione]"
1 to 30,< 1,CN1C[C@H](Nc2cnn(C)c(=O)c2Cl)C[C@H](c2ccc(C(=O)N3CCC4(CC3)CCN(c3ccn(C5CCC(=O)NC5=O)c(=O)c3)CC4)cc2)C1 (some centres unmarked) [Compound 262]
